Consider nine compounds from article PMC8145107 (Pharmaceutics, 2021).

The test system of series [1] is Salmonella typhimurium TA98. Particulars: TA98, without S-9 mix; J2 40, NA49 200, positive controls 1-2 μg/plate. How it is done: To perform the Ames test of J2 and NA49, the number of revertant colonies was counted on each compound-treated plate at the maximum concentration at which the compound was soluble and nontoxic to the S. typhimurium tester strains (Supplementary Material S1). The ratio of the number of revertant colonies in the treated plate to colonies in the vehicle plate. […] For the hERG K^+ channel binding assay of J2 and NA49, the inhibitory activity against the hERG K^+ channel and its ligand was measured using a red fluorescent hERG channel ligand tracer. The final activity was assessed as a decrease in the degree of fluorescence polarization. […]
The test was conducted with maximum concentration at which the compound was
soluble and nontoxic to the S. typhimurium tester strains. #Factor = No. of revertant colonies
of treated plate colonies of vehicle control plate. […]

Series [2] deals with NCI-H460 cells. The experiment in a line: MTT viability assay, NCI-H460. The series is classed as cell-based, human. Particulars: 24 h. How it is done:
The human NSCLC cell lines of NCI-H460, A549, HCC827, PC9, NCI-H1650, and NCI-H1975 were obtained from the American Type Culture Collection (Rockville, MD, USA). Cells were cultured in RPMI 1640 medium containing 10% FBS, 2 mmol/L L-glutamine, and 100 units/mL of penicillin and streptomycin and maintained at 37 °C in a humidified incubator containing 5% CO2.
Cell viability against gefitinib-, cisplatin-, and NA49-induced toxicity was determined using an MTT (Amersham Pharmacia Biotech) assay in 96-well plates. […] Next, cells were incubated with 100 µL of 5 mg/mL 3-(4,5-dimethylthiazol-2-yl)-2,5-diphenyltetrazolium bromide (Sigma Aldrich, M5655) for 2 h. After the MTT mixture was removed, 100 µL of DMSO was added to each well, and absorbance at 540 nm was measured using an ELISA plate reader (TECAN, Twinfinite PRO).
For orientation: Formazan colour is commonly taken as a measure of viable cells.

The next series deals with A549 cells. The experiment in a line: Cell death by PI staining / flow cytometry, A549. It counts as cell-based, human. Particulars: cisplatin 3 µM, Gef 30 µM, alone. How it is done:
(§1) Cells were plated in 6-well culture plates at a density of 1 × 10^5 cells/well. Compounds were applied to the cells immediately after seeding. When cells were harvested, cells were washed once with 1× phosphate-buffered saline (PBS), dissociated using Trypsin-EDTA, and centrifuged at 13,000 rpm for 3 min at 4 °C. Next, 1 mL of 1× PBS was added to wash the pellet again. Finally, 1 mL of 1× PBS and 1 μg/mL of propidium iodide (PI) were added to each polystyrene round-bottom tube. Flow cytometric analysis was performed using a FACS flow cytometer (BD Bioscience). To measure cell death, 10^4 cells were counted, and PI-stained cells were analyzed. FACS analysis in accordance with the manufacturer’s instruction. […]
(§2) Table S1. CI values of NSCLC cell lines.
(§3) Cell line Combination drug NA 10 µM NA 20 µM
(§4) CI values were calculated from the data of percent inhibition of cell death by PI staining. Each CI
(§5) value was analyzed by CompuSyn software. […]
(In general: In flow cytometry, cells or beads pass a laser one at a time.)

The subject of series [3] is NCI-H460 cells. In words: Cell death by PI staining / flow cytometry, NCI-H460. The series is classed as cell-based, human. The settings on record: NCI-H460; cisplatin 3 µM, Gef 30 µM, alone. On the procedure:
as §1, §2, §3, §4, §5

For the next series, the target named is CYP450 3A4 (Homo sapiens, UniProt P08684). The experiment in a line: CYP450 enzyme inhibition, 3A4. The settings on record: 10 μM.
In another series the target is CYP450 2C19 (Homo sapiens, UniProt P33261). In words: CYP450 enzyme inhibition, 2C19. It counts as in vitro ADME. Particulars: 10 μM.
The target in another series is CYP2C9 (Homo sapiens, UniProt P11712). The experiment in a line: CYP450 enzyme inhibition, 2C9. The series is classed as in vitro ADME. Particulars: 10 μM.
A further series has as its target T1, CYP1A2 (Homo sapiens, UniProt P05177).
T1 sequence (P05177 1-516): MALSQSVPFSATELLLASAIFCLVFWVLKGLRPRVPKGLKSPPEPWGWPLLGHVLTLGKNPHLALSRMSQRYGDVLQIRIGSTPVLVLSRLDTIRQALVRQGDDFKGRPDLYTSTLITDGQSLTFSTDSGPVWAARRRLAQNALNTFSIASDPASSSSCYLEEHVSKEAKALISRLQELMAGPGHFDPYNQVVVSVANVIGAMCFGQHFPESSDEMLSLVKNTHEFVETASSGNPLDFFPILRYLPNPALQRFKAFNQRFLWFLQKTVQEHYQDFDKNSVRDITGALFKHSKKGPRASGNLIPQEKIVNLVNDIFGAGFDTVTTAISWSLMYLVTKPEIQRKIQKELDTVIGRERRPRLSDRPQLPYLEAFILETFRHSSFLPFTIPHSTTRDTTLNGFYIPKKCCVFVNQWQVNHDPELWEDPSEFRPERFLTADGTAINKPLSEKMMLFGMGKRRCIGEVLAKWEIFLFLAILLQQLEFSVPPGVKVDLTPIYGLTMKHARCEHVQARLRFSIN
In words: in vitro.

The next series addresses CYP450 2D6 (Homo sapiens, UniProt P10635). In words: CYP450 enzyme inhibition, 2D6. The series is classed as in vitro ADME. Particulars: 10 μM.

Sequence of CYP2C9 (P11712 whole entry): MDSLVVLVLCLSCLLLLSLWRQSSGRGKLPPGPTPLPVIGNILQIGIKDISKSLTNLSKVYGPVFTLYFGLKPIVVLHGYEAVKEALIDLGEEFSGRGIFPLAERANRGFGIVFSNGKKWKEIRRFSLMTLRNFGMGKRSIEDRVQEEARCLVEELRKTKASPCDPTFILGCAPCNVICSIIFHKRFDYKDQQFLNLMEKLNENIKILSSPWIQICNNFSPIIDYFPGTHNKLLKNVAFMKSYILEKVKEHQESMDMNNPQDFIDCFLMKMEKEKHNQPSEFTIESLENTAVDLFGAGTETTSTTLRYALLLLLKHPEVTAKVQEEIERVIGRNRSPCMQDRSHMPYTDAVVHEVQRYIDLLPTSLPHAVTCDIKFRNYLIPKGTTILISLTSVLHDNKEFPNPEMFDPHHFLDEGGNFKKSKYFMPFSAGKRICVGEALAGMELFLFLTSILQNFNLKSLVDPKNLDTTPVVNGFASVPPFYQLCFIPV
Sequence of CYP450 2D6 (P10635 whole entry): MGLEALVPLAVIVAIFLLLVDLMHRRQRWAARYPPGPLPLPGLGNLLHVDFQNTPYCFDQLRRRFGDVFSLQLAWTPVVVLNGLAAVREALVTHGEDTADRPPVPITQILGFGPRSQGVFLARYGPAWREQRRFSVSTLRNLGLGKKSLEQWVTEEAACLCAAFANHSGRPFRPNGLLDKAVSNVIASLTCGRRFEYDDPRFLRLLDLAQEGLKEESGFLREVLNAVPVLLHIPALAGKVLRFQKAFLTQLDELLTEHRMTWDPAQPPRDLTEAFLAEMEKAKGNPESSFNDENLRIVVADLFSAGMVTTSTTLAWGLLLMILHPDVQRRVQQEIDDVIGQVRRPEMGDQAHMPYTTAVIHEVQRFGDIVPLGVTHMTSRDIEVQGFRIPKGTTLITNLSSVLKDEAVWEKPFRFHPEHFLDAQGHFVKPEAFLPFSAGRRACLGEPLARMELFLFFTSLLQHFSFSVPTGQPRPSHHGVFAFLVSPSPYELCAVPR
Sequence of CYP450 2C19 (P33261 whole entry): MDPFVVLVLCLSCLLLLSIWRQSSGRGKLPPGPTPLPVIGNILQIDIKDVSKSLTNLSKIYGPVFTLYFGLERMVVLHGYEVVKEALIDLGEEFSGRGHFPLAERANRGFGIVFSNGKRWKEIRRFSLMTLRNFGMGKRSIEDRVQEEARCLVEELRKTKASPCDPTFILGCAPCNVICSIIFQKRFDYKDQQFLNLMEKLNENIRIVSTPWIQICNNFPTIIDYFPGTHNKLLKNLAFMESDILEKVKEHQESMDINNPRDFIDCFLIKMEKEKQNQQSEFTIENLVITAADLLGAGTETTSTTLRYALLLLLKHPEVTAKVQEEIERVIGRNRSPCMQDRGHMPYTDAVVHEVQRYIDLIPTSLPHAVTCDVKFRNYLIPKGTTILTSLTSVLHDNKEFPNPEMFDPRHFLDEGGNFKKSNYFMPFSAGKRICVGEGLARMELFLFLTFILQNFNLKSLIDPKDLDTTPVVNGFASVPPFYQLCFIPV
Sequence of CYP450 3A4 (P08684 whole entry): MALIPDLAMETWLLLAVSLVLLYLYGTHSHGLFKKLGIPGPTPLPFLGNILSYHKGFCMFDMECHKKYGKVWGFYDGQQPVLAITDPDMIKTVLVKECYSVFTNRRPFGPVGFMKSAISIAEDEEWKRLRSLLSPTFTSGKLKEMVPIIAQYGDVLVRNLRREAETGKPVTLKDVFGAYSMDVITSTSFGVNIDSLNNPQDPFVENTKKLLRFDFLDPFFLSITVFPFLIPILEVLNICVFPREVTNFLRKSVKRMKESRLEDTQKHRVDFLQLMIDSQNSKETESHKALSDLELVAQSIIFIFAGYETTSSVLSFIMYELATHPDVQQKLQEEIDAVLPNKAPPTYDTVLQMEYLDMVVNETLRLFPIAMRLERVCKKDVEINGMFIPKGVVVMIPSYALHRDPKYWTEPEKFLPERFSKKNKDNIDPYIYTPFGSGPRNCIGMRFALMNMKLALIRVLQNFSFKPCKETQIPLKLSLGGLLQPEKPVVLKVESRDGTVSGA
Protocol for CYP2C9: (§6) Permeability was evaluated with a parallel artificial membrane permeability (PAMPA) assay using an artificially generated lipid-infused membrane.
Protocol for CYP450 2C19: as §6

As for `O=[N+]([O-])c1ccc2c(c1)Cc1ccccc1-2` [2-nitrofluorene, reference compound], in series [1], the “Factor (revertant colonies of treated plate/vehicle control plate)” value is given as 28.9 and the “Revertant colonies/plate (Mean ± S.D.)” value worked out at 462 ± 24 colonies/plate. A word on the IC50: it is the midpoint of a concentration-inhibition curve. Regarding `N.N.[Cl][Pt][Cl]` [Cisplatin, cisplatin, reference compound], the IC50 in the series with NCI-H460 cells [2] was 11.7 µM. In addition, the Cell death entry in the series on A549 cells and in the series on NCI-H460 cells [3] was “less than 30%” throughout.

`COc1cc2ncnc(Nc3ccc(F)c(Cl)c3)c2cc1OCCCN1CCOCC1` [Gef, Gefitinib, reference compound]: the Cell death entry in the series on A549 cells and with NCI-H460 cells [3] was “less than 30%” each time.

For `OCc1ncc2n1-c1ccc(Cl)cc1C(c1ccccc1F)=NC2` [OH-midazolam, reference compound], the “% inhibition of CYP450 3A4, positive control” value at CYP450 3A4 amounted to 92.5%.

`COc1ccc2nc([S+]([O-])Cc3ncc(CO)c(OC)c3C)[nH]c2c1` (centres unmarked) [OH-omeprazole, reference compound]: the “% inhibition of CYP450 2C19, positive control” value at CYP450 2C19 is 93.2%. For `CCCCNC(=O)NS(=O)(=O)c1ccc(CO)cc1` [OH-tolbutamide, reference compound], the “% inhibition of CYP450 2C9, positive control” value at CYP2C9 turned out to be 91.7%.

What is called inhibition is the percentage by which the read-out fell short of the control. Low readings indicate little suppression, high ones strong suppression. On to `CC(=O)Nc1ccc(O)cc1` [acetaminophen], for which the inhibition at 10 μM on CYP1A2 stood at 92.4%. For the compound `CN1CC[C@@]23CCCC[C@@H]2[C@@H]1Cc1ccc(O)cc13` [dextrophan, reference compound], the “% inhibition of CYP450 2D6, positive control” value on CYP450 2D6 is on record as 94.0%.

Take `[N-]=[N+]=[N-].[Na+]` [sodium azide, reference compound]: in series [1], the “Factor (revertant colonies of treated plate/vehicle control plate)” value is reported as 4.1 and the “Revertant colonies/plate (Mean ± S.D.)” value stood at 441 ± 16 colonies/plate.
